Like-named read-outs stand apart in the source and are kept apart here. Marks after values point to notes of the source that are not given here.

The target in assay [1] is T1, delta318 SSTR5-D2R putative hetero-oligomers (Homo sapiens, UniProt P14416+P35346, DEL319-364).
T1 construct: expressed in transfected cells
As to the kind of experiment: cell-based. The settings on record: for effect on SST inhibition of forskolin-stimulated cAMP: pertussis toxin 100 ng/ml pretreatment 2 h, sulpiride 10^−4 M.

Assay [2] has as its target HA-SSTR5 and D2R hetero-oligomer (Homo sapiens, UniProt P14416+P35346). The assay is described as follows: pbFRET microscopy, CHO-K1 cells co-expressing HA-SSTR5 and D2R. It is filed as cell-based. As for the experimental part:
Generally, FRET efficiencies are determined indirectly by measuring changes in the quantum yield of any competitive donor deactivation process upon introduction of an acceptor molecule. Donor photobleaching represents such a competitive process which is exploited in pbFRET-microscopy. The effective FRET efficiency E is calculated from the photobleaching time constants of the donor obtained in the absence (τD−A) and presence (τD+A) of acceptor according to: [formula]
CHO-K1 cells, stably cotransfected with HA-hSSTR5 and D2R, were grown on glass coverslips for 24 hours, treated with various agonists/antagonists for 30 minutes at 37° C., washed and fixed in 1% paraformaldehyde for 30 minutes on ice. […] Coverslips were mounted on microscope slides and used for pbFRET-microscopy the day after.
pbFRET experiments were performed on a Leica DMLB fluorescence microscope equipped with epi-illumination. An OSRAM HBO 100 W Hg lamp was used as excitation light source and the objective was a Leica pl-fluotar 40× oil immersion lens. […] For each cell, a sequence of 20 images was acquired during donor-photobleaching. One image was collected every 4 s with exposure time of 1 s. Exposure as well as time delays were software controlled.
Images were corrected for dark current, background and flatness. For analysis of the photobleaching decay, only the high-intensity plasma membrane region was considered, low intensity background and intracellular regions were masked.
HA-hSSTR5 and D2R were specifically labeled with FITC (donor) and rhodamine (acceptor), respectively using mouse monoclonal antibody against HA and rabbit polyclonal anti-D2R antibody, followed by reaction with FITC conjugated goat anti-mouse and rhodamine conjugated goat anti-rabbit secondary antibody. […] FIG. 4A Left panel: HA-SSTR5 (visualized with mouse anti-HA mAb and FITC-conjugated goat anti-mouse IgG). FIG. 4A Middle panel: D2R (rabbit polyclonal antibody and rhodamine-conjugated goat anti-rabbit IgG). […] Magnification: ×630.
The decrease in donor fluorescence intensity due to photobleaching during prolonged exposure to excitation light was monitored in the absence (FIG. 4B, I-III) or presence (FIG. 4B, IV-VI) of acceptor, i.e. in the potential presence of an additional donor deactivation process, FRET. Cells were reacted with primary antibodies and either with FITC-conjugated goat-anti-mouse IgG (donor in the absence of acceptor) (I-III), or with both FITC-conjugated goat-anti-mouse and rhodamine-conjugated goat-anti-rabbit IgG (donor in the presence of acceptor) (IV-VI). FIG. 4B I. Photobleaching of donor in the absence of acceptor (only selection of images shown). For analysis of the photobleaching decay, only the high-intensity membrane region was considered, low intensity background and intracellular regions were masked (black). […] FIG. 4B II. The average fluorescence intensity of each image was plotted versus the time that the cell had been exposed to excitation light. […] FIG. 4B III. The decrease of fluorescence intensity was analysed for each pixel of the unmasked region and fitted to a single-exponential decay. The resulting time constants were plotted in the histogram shown. […] Photobleaching of donor in the presence of acceptor. […] FIG. 4B, IV-VI.
The photobleaching decay was analyzed for the plasma membrane regions, both on a pixel-by-pixel basis (FIG. 4, III & VI) as well as averaged over each image (FIG. 4, II & V).

The next assay addresses wild type hSSTR5 and DOR (Homo sapiens, UniProt P35346+P41143). Particulars: for effect on inhibition of radioligand binding induced by GTPγS: [125I] LTT SST-28 radioligand.
The next assay addresses HA-SSTR5 and D2R (Homo sapiens, UniProt P14416+P35346). The settings on record: GTPγS 10^−4M, 30 min at 37° C.
Assay [3] has as its target T2, delta C-tail hSSTR5 with DOR (Homo sapiens, UniProt P35346+P41143, DEL319-364).
T2 construct: expressed in transfected cells
As to the kind of experiment: Inhibition of forskolin-stimulated cAMP, delta C-tail hSSTR5 co-expressed with DOR in CHO-K1 cells. In kind it is cell-based. The settings on record: naltrindole (10^−5 M).

The target of assay [4] is T3, DOR and SSTR5 hetero-oligomer (Homo sapiens, UniProt P35346+P41143).
T3 construct: expressed in transfected cells
T3 sequence (P35346 whole entry): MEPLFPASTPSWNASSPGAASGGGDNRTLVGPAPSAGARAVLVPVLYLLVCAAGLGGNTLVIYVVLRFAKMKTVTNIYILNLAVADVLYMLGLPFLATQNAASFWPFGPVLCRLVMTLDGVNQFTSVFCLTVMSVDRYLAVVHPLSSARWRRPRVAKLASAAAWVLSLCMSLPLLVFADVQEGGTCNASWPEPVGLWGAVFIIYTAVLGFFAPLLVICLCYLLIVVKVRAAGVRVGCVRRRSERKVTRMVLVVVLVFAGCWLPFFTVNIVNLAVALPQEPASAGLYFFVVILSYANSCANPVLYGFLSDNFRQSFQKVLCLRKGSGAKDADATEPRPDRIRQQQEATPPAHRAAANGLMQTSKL
T3 sequence (P41143 whole entry): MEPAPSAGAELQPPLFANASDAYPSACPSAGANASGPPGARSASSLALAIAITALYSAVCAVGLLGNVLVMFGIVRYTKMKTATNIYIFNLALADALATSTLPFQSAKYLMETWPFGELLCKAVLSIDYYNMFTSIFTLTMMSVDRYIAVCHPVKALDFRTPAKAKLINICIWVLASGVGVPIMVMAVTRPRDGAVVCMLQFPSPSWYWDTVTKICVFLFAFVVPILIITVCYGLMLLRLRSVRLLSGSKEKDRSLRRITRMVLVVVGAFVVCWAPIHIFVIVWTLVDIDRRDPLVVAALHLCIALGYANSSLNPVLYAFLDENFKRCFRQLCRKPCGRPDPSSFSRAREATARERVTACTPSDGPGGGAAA
As to the kind of experiment: Inhibition of FSK-stimulated cAMP, hSSTR5/DOR cotransfectants. It is filed as cell-based. The settings on record: SST-14 plus naltrindole.

The conditions of assay [5]: intrathecal or epidural; post-operative and neoplastic pain; cited from earlier work.
The conditions of assay [6]: i.c.v. in monkeys; cited from earlier work.

T1 sequence (P14416 whole entry, stated change not applied): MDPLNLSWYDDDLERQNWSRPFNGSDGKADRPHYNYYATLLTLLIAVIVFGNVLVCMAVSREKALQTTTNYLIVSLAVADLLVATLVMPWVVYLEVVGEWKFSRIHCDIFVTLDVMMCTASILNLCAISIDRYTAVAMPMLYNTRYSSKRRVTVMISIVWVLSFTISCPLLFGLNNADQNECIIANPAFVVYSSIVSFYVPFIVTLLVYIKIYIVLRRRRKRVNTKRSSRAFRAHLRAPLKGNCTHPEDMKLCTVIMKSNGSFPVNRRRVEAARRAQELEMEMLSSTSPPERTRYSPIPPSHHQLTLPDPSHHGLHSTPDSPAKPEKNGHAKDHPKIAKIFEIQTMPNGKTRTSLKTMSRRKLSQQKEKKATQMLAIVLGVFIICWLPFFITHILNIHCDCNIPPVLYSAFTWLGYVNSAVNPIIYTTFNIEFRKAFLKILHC
T1 sequence (P35346 1-318, stated change not applied): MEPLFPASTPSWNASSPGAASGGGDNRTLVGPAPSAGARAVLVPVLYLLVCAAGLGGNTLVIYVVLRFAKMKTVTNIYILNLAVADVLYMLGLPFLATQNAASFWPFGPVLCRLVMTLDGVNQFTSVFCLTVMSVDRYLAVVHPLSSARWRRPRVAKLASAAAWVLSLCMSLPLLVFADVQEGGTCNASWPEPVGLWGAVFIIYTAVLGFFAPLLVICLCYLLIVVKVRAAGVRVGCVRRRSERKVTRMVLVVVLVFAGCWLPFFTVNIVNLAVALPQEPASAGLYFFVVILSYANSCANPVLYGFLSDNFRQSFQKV
Sequence of HA-SSTR5 and D2R hetero-oligomer (P35346 whole entry): as the sequence (P35346 whole entry) above
Sequence of HA-SSTR5 and D2R hetero-oligomer (P14416 whole entry): as the sequence (P14416 whole entry, stated change not applied) above
Sequence of wild type hSSTR5 and DOR (P35346 whole entry): as the sequence (P35346 whole entry) above
Sequence of wild type hSSTR5 and DOR (P41143 whole entry): as the sequence (P41143 whole entry) above
T2 sequence (P35346 1-318 limits assumed, stated change not applied): as the sequence (P35346 1-318, stated change not applied) above
T2 sequence (P41143 whole entry, stated change not applied): as the sequence (P41143 whole entry) above
Sequence of HA-SSTR5 and D2R (P35346 whole entry): as the sequence (P35346 whole entry) above
Sequence of HA-SSTR5 and D2R (P14416 whole entry): as the sequence (P14416 whole entry, stated change not applied) above
Source text for wild type hSSTR5 and DOR: LTT SST-28 binding by the cotransfectants. In order to characterize G protein function, wild type hSSTR5 and DOR were stably coexpressed in CHO-K1 cells.

Turning to `NCCc1ccc(O)c(O)c1` [DA, dopamine], in assay [1] (CHO-K1, read-out: maximum inhibition of forskolin-stimulated cAMP), the inhibition at 1 µM stood at 30 ± 1.7%. For the same molecule, in assay [2], the “E[%] average effective FRET-efficiency” value is recorded as 16±2%; the “τavg[S] mean photobleaching time constant, D + A” value is given as “D + A: 21.3 ± 0.3 S”; the “τavg[S] mean photobleaching time constant, D − A” value is recorded as “D − A: 17.9 ± 0.3 S”.

As to `C[C@@H](NC(=O)[C@@H](N)Cc1ccc(O)cc1)C(=O)NCC(=O)N(C)[C@@H](Cc1ccccc1)C(=O)NCCO` [DAMGO, [D-Ala^2, N-MePhe^4, Gly-ol^5]-Enkephalin], at wild type hSSTR5 and DOR, the “effect on inhibition of radioligand binding induced by GTPγS” value is given as “without effect”.

In the case of `Nc1nc2c(ncn2[C@@H]2O[C@H](COP(=O)(O)OP(=O)(O)OP(O)(O)=S)[C@@H](O)[C@H]2O)c(=O)[nH]1` [GTPγS], the “decrease in specific radioligand binding” value at HA-SSTR5 and D2R came out at 41±3%.

With `CCc1cc(Cl)c(OC)c(C(=O)NC[C@@H]2CCCN2CC)c1O` [eticlopride], in assay [2], the “E[%] average effective FRET-efficiency” value was found to be 3±3%; the “τavg[S] mean photobleaching time constant, D + A” value was “D + A: 19.4 ± 0.4 S”; the “τavg[S] mean photobleaching time constant, D − A” value was “D − A: 18.9 ± 0.3*^) S”.

`Oc1ccc2c3c1O[C@H]1c4[nH]c5ccccc5c4C[C@@]4(O)[C@@H](C2)N(CC2CC2)CC[C@]314` [naltrindole]: the “effect on SST-14 inhibition of FSK-stimulated cAMP” value in assay [3] was “abolished”. For the same molecule, the “effect on inhibition of radioligand binding induced by GTPγS” value at wild type hSSTR5 and DOR is “reversed”. At wild type hSSTR5 and DOR (enhancement by DOR ligand), the G-protein coupling efficiency result was “reduced coupling”. For the same molecule, the “SST-14 induced cAMP inhibition in the presence of the ligand” value in assay [4] is reported as 20±4%.

Take `C[C@@H](O)[C@@H]1NC(=O)[C@H](CCCCN)NC(=O)[C@@H](Cc2c[nH]c3ccccc23)NC(=O)[C@H](Cc2ccccc2)NC(=O)[C@@H](NC(=O)[C@H](N)Cc2ccccc2)CSSC[C@@H](C(=O)N[C@H](CO)[C@@H](C)O)NC1=O` [octreotide]: the analgesic effect entry in assay [5] is reported as “powerful analgesic effects”. For the same molecule, in assay [6], the neurobehavioral effect entry is reported as “Parkinsonian syndrome”.

Regarding `CCN1CCCC1CNC(=O)c1cc(S(N)(=O)=O)ccc1OC` (stereo not shown) [sulpiride], the “effect on SST inhibition of forskolin-stimulated cAMP” value in assay [1] is given as “completely abolished”. Further, in assay [2] (donor in absence of acceptor, ± SEM), the “τavg[S] mean photobleaching time constant, D − A” value is listed as “D − A: 17.9 ± 0.3 S”. Further, the “τavg[S] mean photobleaching time constant, D + A” value in assay [2] (donor in presence of acceptor, ± SEM) is listed as “D + A: 19.2 ± 0.3 S”.

Regarding pertussis toxin, the “effect on SST inhibition of forskolin-stimulated cAMP” value in assay [1] is given as “completely abolished”.

As usually defined, the inhibition is the percentage by which the read-out fell short of the control.

The record behind these values is patent publication US20010053848A1, “Hetero-oligomeric G protein-coupled receptors as novel drug targets” (priority 2000, published 2001).
